Assay results taken from patent US9540391B2, “Isomannide derivatives as inhibitors of soluble epoxide hydrolase” (SANOFI, priority 2013, dated 2017).
Structures can show the parent of a compound that is named as a salt.

These molecules were tested against T1, recombinant sEH (Homo sapiens, UniProt P34913) (assay: biochemical screening assay for inhibition of soluble epoxide hydrolase (fluorometric, Phome substrate)).
T1 construct: made in house; host or cells: Sf9 insect cells
T1 sequence (P34913 1-555): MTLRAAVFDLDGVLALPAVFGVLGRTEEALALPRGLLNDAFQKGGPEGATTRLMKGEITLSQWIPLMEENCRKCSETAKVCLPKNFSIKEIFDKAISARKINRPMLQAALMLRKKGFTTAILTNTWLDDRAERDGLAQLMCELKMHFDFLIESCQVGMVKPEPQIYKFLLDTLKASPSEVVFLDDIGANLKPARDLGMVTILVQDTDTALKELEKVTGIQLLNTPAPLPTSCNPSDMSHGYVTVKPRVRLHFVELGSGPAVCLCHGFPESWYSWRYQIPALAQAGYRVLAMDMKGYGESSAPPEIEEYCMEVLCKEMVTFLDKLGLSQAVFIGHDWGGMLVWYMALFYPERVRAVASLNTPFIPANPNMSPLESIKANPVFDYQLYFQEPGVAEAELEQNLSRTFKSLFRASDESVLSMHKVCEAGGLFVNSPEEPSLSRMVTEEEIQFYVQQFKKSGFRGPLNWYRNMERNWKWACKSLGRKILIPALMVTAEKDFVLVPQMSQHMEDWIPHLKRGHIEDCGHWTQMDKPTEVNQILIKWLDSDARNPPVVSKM
Description: The ability of the compounds of the formula I to inhibit soluble epoxide hydrolase can be determined as follows:
Compounds were tested in a biochemical screening assay using recombinant sEH purified from Sf9 insect cells and an artificial substrate, (3-phenyl-oxiranyl)-acetic acid cyano-(6-methoxy-naphtalen-2-yl)-methyl ester, Phome. The biochemical assay was performed in analogy to a fluorometric method described in the literature (P. D. Jones et al., Anal. Biochem. 2005, 343, 66-75). The assay principle bases on the sEH-catalyzed hydrolysis of an artificial α-cyano-ester substrate. 0-deacetylation liberates a cyanohydrin intermediate that rapidly decomposes to the highly fluorescent 6-methoxy-2-naphtaldehyde. To discriminate sample autofluorescence, the assay was carried out as a kinetic measurement with two time points. The first measurement is performed immediately before addition of the substrate and the second measurement is done after completion of the assay. The assay format is either in 96- or in 384-well format. Details of the assay using a 96-well plate format are described below. 40 μL recombinant sEH enzyme and 5 μL test compound are pre-incubated for 15 minutes at 30° C. Following pre-incubation, the reaction is started by addition of 5 μL Phome. The assay mixture containing 2 nM final sEH concentration, test compound ranging in a concentration from 0.0001-10 μM and 5 μM Phome is incubated for 60 minutes at 30° C.
Fluorescence can be measured with any suitable detector for instance a TECAN Safire or Tecan Ultra at […]. % inhibition of recombinant sEH activity is used for calculation of corresponding IC50 values as illustrated and described in the examples.
The NCBI gene bank reference sequence with the accession number NM_001979 for EPHX2/sEH was applied for recombinant protein production:
The following commercially available materials have been used: • Incubation reagent: 25 mM Hepes (Sigma-Aldrich, Cat. No H-3375), 0.01% bovine albumin (Sigma-Aldrich Cat. No PA9205) • Substrate: 3-Phenyl-oxiranyl)-acetic acid cyano-(6-methoxy-naphtalen-2-yl)-methyl ester, Phome (Biozol Cat. No 10003134) • Microtiter plates: 96-well plates (Greiner Cat. No 655180; Costar Cat. No 3915)
Work on O=C(NC1CCCCC1)N[C@H]1CO[C@H]2[C@@H]1OC[C@@H]2Oc1ccccc1CN1CCCCC1 [Example 135, 1-Cyclohexyl-3-[(3S,3aR,6S,6aS)-6-(2-piperidin-1-ylmethyl-phenoxy)-hexahydro-furo[3,2-b]furan-3-yl]-urea; trifluoroacetate] yielded an IC50 of 20 nM. Work on CC(C)(C)NC(=O)N[C@H]1CO[C@H]2[C@@H]1OC[C@@H]2Oc1ccc(F)cc1 [Example 149, 1-tert-Butyl-3-[(3S,3aR,6S,6aS)-6-(4-fluoro-phenoxy)-hexahydro-furo[3,2-b]furan-3-yl]-urea] yielded an IC50 of 2160 nM. O=C(NC1CCCCC1)N[C@H]1CO[C@H]2[C@@H]1OC[C@@H]2Oc1ccc(C(F)(F)F)cc1 [Example 101, 1-Cyclohexyl-3-[(3S,3aR,6S,6aS)-6-(4-trifluoromethyl-phenoxy)-hexa-hydro-furo[3,2-b]furan-3-yl]-urea] showed an IC50 of 4 nM. In the case of O=C(NCCc1ccccc1)N[C@H]1CO[C@H]2[C@@H]1OC[C@@H]2C#Cc1ccsc1 [Example 314, 1-Phenethyl-3-((3S,3aR,6S,-6aR)-6-thiophen-3-ylethynyl-hexahydro-furo[3,2-b]furan-3-yl)-urea], the IC50 is reported as 33 nM. For COC[C@@H](NC(=O)N[C@H]1CO[C@H]2[C@@H]1OC[C@@H]2Oc1cccnc1C)c1ccccc1 [Example 237, 1-((S)-2-Methoxy-1-phenyl-ethyl)-3-[(3S,3aR,6S,6aS)-6-(2-methyl-pyridin-3-yloxy)-hexahydro-furo[3,2-b]furan-3-yl]-urea], the IC50 was 177 nM. Work on Cc1ncccc1O[C@H]1CO[C@H]2[C@@H]1OC[C@@H]2NC(=O)N[C@@H]1CCCC[C@H]1C(C)(C)C [Example 265, 1-((1R,2S)-2-tert-Butyl-cyclohexyl)-3-[(3S,3aR,6S,6aS)-6-(2-methyl-pyridin-3-yloxy)-hexahydro-furo[3,2-b]furan-3-yl]-urea] yielded an IC50 of 111 nM. Work on O=C(NCCc1ccccc1)N[C@H]1CO[C@H]2[C@@H]1OC[C@@H]2C#Cc1ccccc1 [Example 297, 1-Phenethyl-3-((3S,3aR,6S,6aR)-6-phenylethynyl-hexahydro-furo[3,2-b]furan-3-yl)-urea] yielded an IC50 of 67 nM. Molecule COc1cc(CNC(=O)N[C@H]2CO[C@H]3[C@@H]2OC[C@@H]3Oc2cccnc2C)ccn1 [Example 203, 1-(2-Methoxy-pyridin-4-ylmethyl)-3-[(3S,3aR,6S,6aS)-6-(2-methyl-pyridin-3-yloxy)-hexahydro-furo[3,2-b]furan-3-yl]-urea] has an IC50 of 28 nM. With Cc1ncccc1O[C@H]1CO[C@H]2[C@@H]1OC[C@@H]2NC(=O)NCCN1CCCCC1=O [Example 251, 1-[(3S,3aR,6S,6aS)-6-(2-Methyl-pyridin-3-yloxy)-hexahydro-furo[3,2-b]furan-3-yl]-3-[2-(2-oxo-piperidin-1-yl)-ethyl]-urea] the IC50 was 1560 nM. Molecule O=C(NC1CCCCC1)N[C@H]1CO[C@H]2[C@@H]1OC[C@@H]2Oc1cccc(Br)c1 [Example 139, 1-[(3S,3aR,6S,6aS)-6-(3-Bromo-phenoxy)-hexahydro-furo[3,2-b]furan-3-yl]-3-cyclohexyl-urea] has an IC50 of 2 nM. Molecule CCc1nc(C)ccc1O[C@H]1CO[C@H]2[C@@H]1OC[C@@H]2NC(=O)NC1CCCCC1 [Example 38, 1-Cyclohexyl-3-[(3S,3aR,6S,6aS)-6-(2-ethyl-6-methyl-pyridin-3-yloxy)-hexahydro-furo[3,2-b]furan-3-yl]-urea] has an IC50 of 1 nM. Work on O=C(Nc1ccc2c(c1)OCCO2)N[C@H]1CO[C@@H]2[C@@H](CCc3ccccc3)CO[C@@H]21 [Example 369, 1-(2,3-Dihydro-benzo[1,4]dioxin-6-yl)-3-((3S,3aR,6S,6aR)-6-phenethyl-hexahydro-furo[3,2-b]furan-3-yl)-urea] yielded an IC50 of 22 nM. Work on Cc1ncccc1O[C@H]1CO[C@H]2[C@@H]1OC[C@@H]2NC(=O)NC(C)c1ccc(F)cc1 (stereo partly drawn) [Example 214, 1-[1-(4-Fluoro-phenyl)-ethyl]-3-[(3S,3aR,6S,6aS)-6-(2-methyl-pyridin-3-yloxy)-hexahydro-furo[3,2-b]furan-3-yl]-urea] yielded an IC50 of 14 nM. O=C(Nc1ccccc1)NC1COC2C(C=Cc3ccccc3)COC12 [Example 323, 1-Phenyl-3-[(3S,3aR,6R)-6-((S)-(Z)-styryl)-hexahydro-furo[3,2-b]furan-3-yl]-urea] gave an IC50 of 190 nM. In the case of COc1cc(NC(=O)N[C@H]2CO[C@H]3[C@H](CCc4ccccc4)CO[C@@H]32)cc(OC)c1 [Example 352, 1-(3,5-Dimethoxy-phenyl)-3-[(3S,3aR,6R)-6-((S)-phenethyl)-hexa-hydro-furo[3,2-b]furan-3-yl]-urea], the IC50 is reported as 149 nM. With Cc1ncccc1O[C@H]1CO[C@H]2[C@@H]1OC[C@@H]2NC(=O)NC1CCN(C)C1=O (stereo partly drawn) [Example 252, 1-(1-Methyl-2-oxo-pyrrolidin-3-yl)-3-[(3S,3aR,6S,6aS)-6-(2-methyl-pyridin-3-yloxy)-hexahydro-furo[3,2-b]furan-3-yl]-urea] the IC50 was 3520 nM. Molecule COCC(NC(=O)N[C@H]1CO[C@H]2[C@@H]1OC[C@@H]2Oc1cccnc1C)c1ccnn1C (stereo partly drawn) [Example 211, 1-[2-Methoxy-1-(2-methyl-2H-pyrazol-3-yl)-ethyl]-3-[(3S,3aR,6S,6aS)-6-(2-methyl-pyridin-3-yloxy)-hexahydro-furo[3,2-b]furan-3-yl]-urea] has an IC50 of 1080 nM. For O=C(NC1CCCCC1)N[C@H]1CO[C@H]2[C@@H]1OC[C@@H]2Sc1nccs1 [Example 56, 1-Cyclohexyl-3-[(3S,3aR,6S,6aS)-6-(thiazol-2-ylsulfanyl)-hexahydro-furo[3,2-b]furan-3-yl]-urea], the IC50 was 2 nM. For O=C(Nc1ccc(OC(F)(F)F)cc1)N[C@H]1CO[C@H]2[C@@H]1OC[C@@H]2C#Cc1ccccc1 [Example 298, 1-((3S,3aR,6S,6aR)-6-Phenylethynyl-hexahydro-furo[3,2-b]furan-3-yl)-3-(4-trifluoromethoxy-phenyl)-urea], the IC50 was 25 nM. O=C(Nc1cccc(C(F)(F)F)c1)N[C@H]1CO[C@H]2[C@@H]1OC[C@@H]2C#Cc1ccccc1 [Example 299, 1-((3S,3aR,6S,6aR)-6-Phenylethynyl-hexahydro-furo[3,2-b]furan-3-yl)-3-(3-trifluoromethyl-phenyl)-urea] showed an IC50 of 1250 nM. Molecule O=C(NC1CCCCC1)N[C@H]1CO[C@H]2[C@@H]1OC[C@@H]2Oc1cncc(Cl)c1 [Example 33, 1-[(3S,3aR,6S,6aS)-6-(5-Chloro-pyridin-3-yloxy)-hexahydro-furo[3,2-b]furan-3-yl]-3-cyclohexyl-urea] has an IC50 of 3 nM. In the case of COCC(C)NC(=O)N[C@H]1CO[C@H]2[C@@H]1OC[C@@H]2Oc1cccnc1C (stereo partly drawn) [Example 183, 1-(2-Methoxy-1-methyl-ethyl)-3-[(3S,3aR,6S,6aS)-6-(2-methyl-pyridin-3-yloxy)-hexahydro-furo[3,2-b]furan-3-yl]-urea], the IC50 is reported as 846 nM. For O=C(Nc1cccc(C(F)(F)F)c1)N[C@H]1CO[C@H]2[C@@H]1OC[C@@H]2/C=C\c1ccccc1 [Example 333, 1-[(3S,3aR,6S,6aR)-6-((Z)-Styryl)-hexahydro-furo[3,2-b]furan-3-yl]-3-(3-trifluoromethyl-phenyl)-urea], the IC50 was 44 nM. O=C(O)CC[C@H]1CO[C@H]2[C@@H]1OC[C@@H]2NC(=O)NC1CCCCC1 [Example 377, 3-[(3S,3aR,6S,6aR)-6-(3-cyclohexyl-ureido)-hexahydro-furo[3,2-b]furan-3-yl]-propionic acid] gave an IC50 of 2940 nM. Work on Cc1ncccc1O[C@H]1CO[C@H]2[C@@H]1OC[C@@H]2NC(=O)NC1CCCN(S(C)(=O)=O)C1 (stereo partly drawn) [Example 86, 1-(1-Methanesulfonyl-piperidin-3-yl)-3-[(3S,3aR,6S,6aS)-6-(2-methyl-pyridin-3-yloxy)-hexahydro-furo[3,2-b]furan-3-yl]-urea] yielded an IC50 of 41 nM. Cc1ncccc1O[C@H]1CO[C@H]2[C@@H]1OC[C@@H]2NC(=O)NCc1cn(C)cn1 [Example 198, 1-(1-Methyl-1H-imidazol-4-ylmethyl)-3-[(3S,3aR,6S,6aS)-6-(2-methyl-pyridin-3-yloxy)-hexahydro-furo[3,2-b]furan-3-yl]-urea] gave an IC50 of 997 nM.
